Data taken from ChEMBL document CHEMBL4017466, “Efficient synthesis of a multi-substituted diphenylmethane skeleton as a steroid mimetic” (Bioorg Med Chem Lett, 2017).
Calls of active or inactive are those of the source. The rule behind the calls is not given here.

Key:
Estrogen receptor = target: T1, Estrogen receptor (Homo sapiens, UniProt P03372); assay: Antagonist activity at CMX-GAL4N fused human ERalpha expressed in HEK293 cells assessed as reduction in E2 induced response by luciferase reporter gene assay; format: cell-based
T1 sequence (P03372 whole entry): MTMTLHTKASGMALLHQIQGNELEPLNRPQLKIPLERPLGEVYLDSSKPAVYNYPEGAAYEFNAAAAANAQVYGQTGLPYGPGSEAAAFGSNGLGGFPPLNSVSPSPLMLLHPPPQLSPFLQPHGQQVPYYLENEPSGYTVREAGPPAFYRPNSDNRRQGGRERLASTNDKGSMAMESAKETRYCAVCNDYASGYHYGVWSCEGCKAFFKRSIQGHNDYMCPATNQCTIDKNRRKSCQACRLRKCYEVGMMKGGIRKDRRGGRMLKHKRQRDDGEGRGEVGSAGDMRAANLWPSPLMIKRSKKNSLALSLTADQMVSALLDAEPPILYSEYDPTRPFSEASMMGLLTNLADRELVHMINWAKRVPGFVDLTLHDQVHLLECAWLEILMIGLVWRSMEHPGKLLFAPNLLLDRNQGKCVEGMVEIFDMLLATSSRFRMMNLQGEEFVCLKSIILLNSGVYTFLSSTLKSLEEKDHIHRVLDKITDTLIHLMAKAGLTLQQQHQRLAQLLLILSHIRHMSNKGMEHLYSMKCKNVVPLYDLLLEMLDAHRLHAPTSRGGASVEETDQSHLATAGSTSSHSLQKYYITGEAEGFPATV

[1] = target: T2, Estrogen receptor (Homo sapiens) (UniProt P03372); assay: Antagonist activity at CMX-GAL4N fused human ERalpha expressed in HEK293 cells assessed as reduction in E2 induced response at 10 to 10^4 nM by luciferase reporter gene assay; format: cell-based
T2 sequence (whole entry): T1 sequence (P03372 whole entry)

Row | SMILES | IC50 (Estrogen receptor) [nM] | Activity [1]
1 | CCCC(CCC)(c1ccc(O)c(C)c1)c1ccc(OC(C)=O)c(OC(C)=O)c1 |  | Active
2 | CCCC(CCC)(c1ccc(O)c(C)c1)c1cc(C)c(O)c(O)c1 | 271 | 
3 | CCC(CC)(c1ccc(O)c(C)c1)c1ccc(O)c(O)c1 | 664 | 
4 | CCCC(CCC)(c1ccc(O)cc1)c1ccc(O)c(O)c1 | 63.2 | 

More lines, in order of falling IC50 (Estrogen receptor), values ahead:

Row | IC50 (Estrogen receptor) [nM] | Activity [1] | SMILES
5 | 225 |  | CCCC(CCC)(c1ccc(OCCN(C)C)c(C)c1)c1ccc(O)c(O)c1
6 | 158 |  | CCCC(CCC)(c1ccc(O)c(C)c1)c1ccc(O)c(O)c1
7 | 154 |  | CCC(CC)(c1ccc(O)cc1)c1ccc(O)c(O)c1
8 | 134 |  | CCCC(CCC)(c1ccc(O)c(C)c1)c1ccc(OCCN(C)C)c(C)c1
9 | 2.22 |  | CCCC(CCC)(c1ccc(O)c(C)c1)c1ccc(O)c(C)c1
